Measurements from ChEMBL document CHEMBL1128848, “The asymmetric synthesis of both enantiomers of eliprodil” (1995).

Test system: Rattus norvegicus
Experiment: Neuroprotective activity (1 mg/kg) administered intravenously was evaluated in rat model of focal cerebral ischemia induced by permanent occlusion of the middle cerebral artery(MCA)
Type: functional

Q: With `O[C@H](CN1CCC(Cc2ccc(F)cc2)CC1)c1ccc(Cl)cc1` as the compound, how does the Infarct volume read?
A: 58.9 mm³

Q: `OC(CN1CCC(Cc2ccc(F)cc2)CC1)c1ccc(Cl)cc1` (racemic) [ELIPRODIL] was tested. Which Infarct volume did it give?
A: 33.3 mm³

Q: How did the Infarct volume turn out when `O[C@@H](CN1CCC(Cc2ccc(F)cc2)CC1)c1ccc(Cl)cc1` was run?
A: 37.7 mm³
